Assay results taken from ChEMBL document CHEMBL1201862, “PubChem BioAssay data set” (2004).
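Dose response: 5 concentrations. Exposure: 48 h. Format: 96-well plates. Endpoint: linear interpolation; highest concentration if not reached. At the GI50, growth is halved.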 Active and inactive are the calls of the source. Rule as the data show it: active = GI50 up to about 1.1 µM and inactive = higher.

Experiments:
Assay in all cases: NCI anticancer screen, dose series, 48 h
[1] = system: SF-295
[2] = system: MDA-MB-231
[3] = system: NCI/ADR-RES
[4] = system: T47D
[5] = system: HCT-116
[6] = system: CCRF-CEM
[7] = system: COLO 205
[8] = system: A549
[9] = system: Hs-578T
[10] = system: SN12C
[11] = system: SF-268
[12] = system: SK-MEL-2
[13] = system: MDA-N
[14] = system: K562
[15] = system: HOP-62
[16] = system: 786-0
[17] = system: OVCAR-5
[18] = system: UACC-62
[19] = system: LOX IMVI
[20] = system: NCI-H522

Measured: GI50

CC(=O)O[C@H]1C(=O)N(c2cc3c4ccccc4ccc3c3ccccc23)[C@@H]1c1ccccc1
inactive: [1] 3.64 µM | [2] 10.9 µM | [3] 4.38 µM | [4] 6.01 µM | [5] 3.21 µM | [6] 3.76 µM | [7] 4.24 µM | [8] 4.56 µM | [9] 5.16 µM | [10] 11 µM | [11] 7.24 µM | [12] 2.65 µM | [13] 3.86 µM | [14] 4.8 µM | [15] 5.16 µM | [16] 3.79 µM | [17] 15.7 µM | [18] 3.15 µM | [19] 4.34 µM

Cc1cccc2c(=O)c3c(O)cc(O)cc3n(C)c12
inactive: [1] > 100 µM | [2] > 100 µM | [3] > 100 µM | [5] > 100 µM | [20] > 100 µM | [6] > 100 µM | [7] > 100 µM | [8] > 100 µM | [9] 6.37 µM | [10] > 100 µM | [11] > 100 µM | [12] > 100 µM | [13] > 100 µM | [14] 63.5 µM | [15] > 100 µM | [16] > 100 µM | [17] > 100 µM | [18] > 100 µM | [19] > 100 µM

O=C1c2ccccc2-c2nc(-c3cccs3)cc3c2c1nc1ccccc13
inactive: [1] 27.8 µM | [2] 58.3 µM | [3] 74.6 µM | [5] 14.3 µM | [20] 12.7 µM | [6] 22.3 µM | [7] 13.2 µM | [8] 9.29 µM | [9] 21.3 µM | [10] > 100 µM | [11] 12.5 µM | [12] 13.6 µM | [13] 6.97 µM | [14] 13.5 µM | [15] 22 µM | [16] 35.8 µM | [17] 36.7 µM | [18] 5.41 µM | [19] 8.24 µM

CC(C)(C)OC(=O)N[C@H]1CC2(C=C(Cl)C(=O)C(Cl)=C2)OC1=O
inactive: [1] 21.9 µM | [2] 17.1 µM | [4] 14.9 µM | [5] 14.8 µM | [20] 3.07 µM | [6] 1.38 µM | [7] 3.97 µM | [8] 38.3 µM | [9] 26.4 µM | [10] 18.5 µM | [11] 17.3 µM | [12] 19.1 µM | [13] 17.1 µM | [14] 2.46 µM | [15] > 58.9 µM | [16] 14.9 µM | [17] 19.5 µM | [18] 16.5 µM | [19] 13.2 µM

N=C1N(S(=O)(=O)c2ccccc2)[C@@H](Cc2ccccc2)[C@H](c2ccccc2)C1(c1ccccc1)c1ccccc1
inactive: [1] > 100 µM | [2] > 100 µM | [3] 70.1 µM | [5] 40.4 µM | [20] 39.5 µM | [6] 27.2 µM | [7] 80.7 µM | [8] > 100 µM | [9] > 100 µM | [10] > 100 µM | [11] > 100 µM | [12] > 100 µM | [13] > 100 µM | [14] 71.1 µM | [15] > 100 µM | [16] > 100 µM | [17] > 100 µM | [18] > 100 µM | [19] > 100 µM

O=C(Sc1n[nH]c(=O)[nH]c1=O)c1cccc2nc3ccccc3nc12
inactive: [1] 57 µM | [2] > 100 µM | [3] > 100 µM | [4] > 100 µM | [5] > 100 µM | [6] > 100 µM | [7] 2.44 µM | [8] 4.05 µM | [9] 20 µM | [10] 34.3 µM | [11] > 100 µM | [12] 68.2 µM | [13] 11.8 µM | [14] 47.9 µM | [16] > 100 µM | [17] > 100 µM | [18] 38.8 µM | [19] 18.5 µM

CC1(C)NC(C(=O)c2ccccc2)=[N+]([O-])C1(O)c1ccccc1 (configuration not stated)
inactive: [1] > 100 µM | [2] > 100 µM | [3] > 100 µM | [4] > 100 µM | [5] 74.5 µM | [6] > 100 µM | [7] > 100 µM | [8] > 100 µM | [9] > 100 µM | [10] > 100 µM | [11] > 100 µM | [12] > 100 µM | [13] > 100 µM | [14] > 100 µM | [15] > 100 µM | [16] > 100 µM | [17] > 100 µM | [18] > 100 µM | [19] > 100 µM

C=CCOC1OC(CO[Si](C)(C)C(C)(C)C)C(OCc2ccccc2)C(OCc2ccccc2)C1OCc1ccccc1 (configuration not stated)
inactive: [1] 22.1 µM | [3] 36.6 µM | [4] 35.6 µM | [5] 23 µM | [20] 34 µM | [6] > 100 µM | [7] > 100 µM | [8] 23.6 µM | [9] 45.2 µM | [10] 71.8 µM | [11] 40.5 µM | [12] 47.8 µM | [13] > 100 µM | [14] > 100 µM | [15] 21.7 µM | [16] 10.5 µM | [17] > 100 µM | [18] 27.2 µM | [19] 25.9 µM

O=S(=O)(O)c1ccc2cc(/N=N/c3c(O)ccc4ccccc34)ccc2c1
inactive: [1] > 100 µM | [3] > 100 µM | [4] > 100 µM | [5] > 100 µM | [20] > 100 µM | [6] > 100 µM | [7] > 100 µM | [8] > 100 µM | [9] 69.2 µM | [10] > 100 µM | [11] > 100 µM | [12] > 100 µM | [13] > 100 µM | [14] > 100 µM | [15] > 100 µM | [16] > 100 µM | [17] > 100 µM | [18] > 100 µM

CC(Br)C(=O)NN1C2=C(Nc3ccccc31)c1cccc3cccc2c13 (configuration not stated)
inactive: [1] 39.3 µM | [2] > 100 µM | [3] 65.2 µM | [4] 2.29 µM | [5] > 100 µM | [20] 92 µM | [6] 61.4 µM | [7] 75.5 µM | [8] 57.9 µM | [9] 58.9 µM | [10] > 100 µM | [11] > 100 µM | [13] 90.6 µM | [14] > 100 µM | [15] 22 µM | [16] 45.9 µM | [17] > 100 µM | [19] 41.4 µM
